Results: paper PMC2607018, “Iodine Atoms: A New Molecular Feature for the Design of Potent Transthyretin Fibrillogenesis Inhibitors” (PLoS ONE, 2009)

Target: TTR variant Y78F (Homo sapiens, UniProt P02766, Y98F)
Test: Kinetic turbidity assay of acid induced fibril formation
Assay type: biochemical
Conditions: not given
Text: Two different parameters can be derived from this kinetic test. The IC50 value is the inhibitor concentration at which the initial rate of fibril formation is half than that in the absence of inhibitor. In turn, RA (%) can be defined as the percent reduction of fibril formation rate at high inhibitor concentration relative to the rate at zero concentration of tested compound.
An in vitro turbidimetric test in a high troughput mode was used to assess the fibrillogenesis inhibition potency of the compounds of the library. The mutant protein TTRY78F was incubated with various concentrations of test compounds in 96 well microplates. After lowering the pH of the solutions to 4.2, the incubation was extended for 1.5 h while recording the absorbance at 340 nm at 1 min intervals. […] (Figure S1).
The mutant Y78F TTR protein (0.4 mg.mL^-1) was incubated for 30 min (pH 7.6, 37 °C) with 6 concentrations of test compounds ranging from 0 to 40 µM in 96-well microplates.
IC50% value is the inhibitor concentration at which the initial rate of fibril formation is half of that in the absence of inhibitor. RA(%) is the percentage of reduction in fibril formation rate induced by a given concentration of test compound relative to the rate of experiments at zero concentration of test compound.

fibrillogenesis inhibitory potency, in words	Structure (SMILES)
very potent inhibitor	O=C(O)CCNC(=O)c1cc(-c2ccc(F)cc2F)cc(I)c1O [22b, N-[2’-,4’-difluoro-4-hydroxy-5-iodo-[1,1’]-biphenyl-3-carbonyl]-β-alanine]

Same assay, conditions: fibrillogenesis inhibition assay, effect of iodination; read-out: Inhibitory efficiency, rough screening (Figure 3, measure not given)

IC50	Structure (SMILES)
49 µM	O=C(O)c1ccc(-c2ccccc2)cc1 [Biphenyl carboxylic, reference compound]
10.9 µM	O=C(O)c1ccccc1Nc1cccc(C(F)(F)F)c1 [Flufenamic, reference compound]
> 100 µM	CC(C(=O)O)c1ccc(-c2ccccc2)c(F)c1 (stereo not drawn) [Flurbiprofen, reference compound]
29 µM	O=C(O)c1ccc(Oc2ccccc2)cc1 [Phenoxybenzoic, reference compound]
> 100 µM	O=C(O)c1ccccc1O [reference compound]

Same assay, conditions: inhibitor concentration at which the initial rate of fibril formation is half; Y78F TTR 0.4 mg/mL, pH 4.2, 37 °C; read-out: Kinetic turbidity assay IC50

IC50	Structure (SMILES)
> 50 µM	COC(=O)[C@H](CO)NC(=O)c1cc(-c2ccc(F)cc2F)ccc1O [15a, N-[2’,4’-difluoro-4-hydroxy-[1,1’]-biphenyl-3-carbonyl]-L-serine methyl ester]
7.2 µM	COC(=O)[C@H](CO)NC(=O)c1cc(-c2ccc(F)cc2F)cc(I)c1O [15b, N-[2’,4’-difluoro-4-hydroxy-5-iodo-[1,1’]-biphenyl-3-carbonyl]-L-serine methyl ester]
> 50 µM	O=C(O)C[C@H](NC(=O)c1cc(-c2ccc(F)cc2F)ccc1O)C(=O)O [16a, N-[2’,4’-difluoro-4-hydroxy-[1,1’]-biphenyl-3-carbonyl]-L-aspartic]
5.2 µM	O=C(O)CC(NC(=O)c1cc(-c2ccc(F)cc2F)cc(I)c1O)C(=O)O [16b, N-[2’-,4’-difluoro-4-hydroxy-5-iodo-[1,1’]-biphenyl-3-carbonyl]-L-aspartic]
> 50 µM	COC(=O)C(CC(=O)O)NC(=O)c1cc(-c2ccc(F)cc2F)ccc1O [17a, N-[2’,4’-difluoro-4-hydroxy-[1,1’]-biphenyl-3-carbonyl]-L-aspartic α-methyl ester]
4.1 µM	COC(=O)C(CC(=O)O)NC(=O)c1cc(-c2ccc(F)cc2F)cc(I)c1O [17b, N-[2’,4’-difluoro-4-hydroxy-5-iodo-[1,1’]-biphenyl-3-carbonyl]-L-aspartic α-methyl ester]
38.3 µM	CC(C)(C)OC(=O)CC(NC(=O)c1cc(-c2ccc(F)cc2F)ccc1O)C(=O)O [18a, N-[2’,4’-difluoro-4-hydroxy-[1,1’]-biphenyl-3-carbonyl]-L-aspartic β-tert-butyl ester]
6 µM	CC(C)(C)OC(=O)CC(NC(=O)c1cc(-c2ccc(F)cc2F)cc(I)c1O)C(=O)O [18b, N-[2’,4’-difluoro-4-hydroxy-5-iodo-[1,1’]-biphenyl-3-carbonyl]-L-aspartic β-tert-butyl ester]
> 50 µM	COC(=O)C(CC(=O)OC(C)(C)C)NC(=O)c1cc(-c2ccc(F)cc2F)ccc1O [19a, N-[2-,4’-difluoro-4-hydroxy-[1,1’]-biphenyl-3-carbonyl]-L-aspartic α-methyl ester and β-tert-butyl ester]
5.8 µM	COC(=O)C(CC(=O)OC(C)(C)C)NC(=O)c1cc(-c2ccc(F)cc2F)cc(I)c1O [19b, N-[2’,4’-difluoro-4-hydroxy-5-iodo-[1,1’]-biphenyl-3-carbonyl]-L-aspartic α-methyl ester and β-tert-butyl ester]
> 50 µM	NC(=O)C[C@H](NC(=O)c1cc(-c2ccc(F)cc2F)ccc1O)C(=O)O [20a, N-[2’,4’-difluoro-4-hydroxy-[1,1’]-biphenyl-3-carbonyl]-L-asparagine]
7.7 µM	NC(=O)CC(NC(=O)c1cc(-c2ccc(F)cc2F)cc(I)c1O)C(=O)O [20b, N-[2’-,4’-difluoro-4-hydroxy-5-iodo-[1,1’]-biphenyl-3-carbonyl]-L-asparagine]
> 50 µM	CC(C)(C)OC(=O)[C@H](CC(N)=O)NC(=O)c1cc(-c2ccc(F)cc2F)ccc1O [21a, N-[2’,4’-difluoro-4-hydroxy-[1,1’]-biphenyl-3-carbonyl]-L-asparagine tert-butyl ester]
9.7 µM	CC(C)(C)OC(=O)[C@H](CC(N)=O)NC(=O)c1cc(-c2ccc(F)cc2F)cc(I)c1O [21b, N-[2’,4’-difluoro-4-hydroxy-5-iodo-[1,1’]-biphenyl-3-carbonyl]-L-asparagine tert-butyl ester]
> 50 µM	O=C(O)CCNC(=O)c1cc(-c2ccc(F)cc2F)ccc1O [22a]
> 50 µM	COC(=O)CCNC(=O)c1cc(-c2ccc(F)cc2F)ccc1O [23a, N-[2’,4’-difluoro-4-hydroxy-[1,1’]-biphenyl-3-carbonyl]-β-alanine methyl ester]

More lines, now with the values behind:

Structure (SMILES)	IC50
CCOC(=O)[C@H](C)NC(=O)c1cc(-c2ccc(F)cc2F)cc(I)c1O [11b, N-[2’,4’-difluoro-4-hydroxy-5-iodo-[1,1’]-biphenyl-3-carbonyl]-L-alanine ethyl ester]	5.7 µM
CC(C)CC(NC(=O)c1cc(-c2ccc(F)cc2F)ccc1O)C(=O)OC(C)(C)C [13a, N-[2’,4’-difluoro-4-hydroxy-[1,1’]-biphenyl-3-carbony]-L-leucine tert-butyl ester]	> 50 µM
CC(C)CC(NC(=O)c1cc(-c2ccc(F)cc2F)cc(I)c1O)C(=O)OC(C)(C)C [13b, N-[2’-,4’-difluoro-4-hydroxy-5-iodo-[1,1’]-biphenyl-3-carbonyl)-L-leucine tert-butyl ester]	> 50 µM
O=C(NC(CO)C(=O)O)c1cc(-c2ccc(F)cc2F)ccc1O (stereo not drawn) [14a]	> 50 µM
O=C(N[C@@H](CO)C(=O)O)c1cc(-c2ccc(F)cc2F)cc(I)c1O [14b, N-[2’,4’-difluoro-4-hydroxy-5-iodo-[1,1’]-biphenyl-3-carbonyl]–L-serine]	3.7 µM
NC(Cc1ccc(Oc2ccc(O)cc2)cc1)C(=O)O (stereo not drawn) [T0, thyronine, reference compound]	> 50 µM
Oc1c(I)cc(I)cc1I [TIP, triiodophenol, reference compound]	3.2 µM

Target: T1, recombinant wild type TTR (Homo sapiens, UniProt P02766)
T1 construct: made in house; host or cells: E. coli
Test: T4 competition assay (125I-T4, gel filtration)
Assay type: binding
Conditions: from T4 displacement
Text: To evaluate the relative binding affinity of the compounds for TTR an already described procedure was followed.

affinity for TTR relative to T4, in words	Structure (SMILES)
higher affinity values for TTR than T4	CCOC(=O)[C@H](C)NC(=O)c1cc(-c2ccc(F)cc2F)cc(I)c1O [11b, N-[2’,4’-difluoro-4-hydroxy-5-iodo-[1,1’]-biphenyl-3-carbonyl]-L-alanine ethyl ester]
higher affinity values for TTR than T4	COC(=O)C(CC(=O)OC(C)(C)C)NC(=O)c1cc(-c2ccc(F)cc2F)cc(I)c1O [19b, N-[2’,4’-difluoro-4-hydroxy-5-iodo-[1,1’]-biphenyl-3-carbonyl]-L-aspartic α-methyl ester and β-tert-butyl ester]
equal affinity for TTR than T4	O=C(O)CCNC(=O)c1cc(-c2ccc(F)cc2F)cc(I)c1O [22b, N-[2’-,4’-difluoro-4-hydroxy-5-iodo-[1,1’]-biphenyl-3-carbonyl]-β-alanine]

Same assay, conditions: wild type TTR 30 nM, 125I-T4, test compounds 0-10 µM, relative to cold T4

T4 Displacement EC50(T4)/EC50(I)	Structure (SMILES)
0.95	O=C(O)CCNC(=O)c1cc(-c2ccc(F)cc2F)cc(I)c1O [22b, N-[2’-,4’-difluoro-4-hydroxy-5-iodo-[1,1’]-biphenyl-3-carbonyl]-β-alanine]
